Data taken from paper PMC8874475, “Antioxidant–Anti-Inflammatory Evaluation of a Polyherbal Formula” (Pharmaceuticals, 2022).

Tests used:
[1] = tested on: egg white-induced rat paw edema; test: Egg white-induced rat paw edema, plethysmometry; type: in vivo, Wistar rats; conditions: for Average Paw Size ± SD / Average Rise in Paw Volume ± SD: n = 3; for % inhibition of paw volume: oral, 1 h before egg white, formula F 250 mg/mL at 1 mL/100 g bw, ASP 100 mg/kg
Protocol: Of the many methods used in screening for the anti-inflammatory effects of various drugs, the most commonly used is the method of highlighting the inhibitory effect of edema produced in the hind paw of a rat after the injection of an inflammatory product. We used whole, fresh egg white, which, due to its inflammation being maintained for a relatively short period of time, is optimal for observation. The effect was measured by the computerized plethysmometric method, the method unanimously and currently used in testing systemic anti-inflammatory effects.
The increases in the volume of the inflamed extremity at 30, 60, 120 and 180 min were expressed as a percentages compared with the volumes measured […] injection of the irritant (Table 3). The mean values of the measured volumes for each animal and the times of measurement were calculated, as were ± standard deviations, followed by the mean values per batch (Table 4). The differences between the averages of the values obtained in the treated groups and those of the control groups (with or without treatment), were calculated for each measurement moment and the anti-inflammatory indexes were evaluated.
The anti-inflammatory effect of plant extracts was evaluated by rat paw edema assay. Wistar rats, of both sexes, weighing 150–200 g provided by the Cantacuzino Institute Biobase were used for the study. Lots of equal numbers of animals (n = 3) were established for each test sample or reference product. The animals were checked at the reception and kept for a period of 7 days for acclimatization, with observation of the clinical condition, behavior and food consumption. They were weighed at the reception and after the acclimatization period, with the selection for testing of animals with weight variations less than 10% of the initial weight. The animals were housed in appropriate cages, in small groups of the same sex. The temperature of the experimental chamber was 22 ± 2 °C and the relative humidity was 50–60%. The lighting was artificial, alternately 12-h light and 12-h dark. The animals received standardized food and water ad libitum. Twelve hours before the test, they were kept at the post and allowed access to water. The measurement of the inflamed segments volumes and their subsequent evolution was performed with the help of a U40 Basile-Italy computerized plethysmometer 7140 and the CUB dedicated software program for data acquisition and storage. The test samples and the reference substance were administered orally by intragastric gavage 1 h before the injection of the inflammatory substance (whole, fresh egg white).
The animals were injected subcutaneously with a volume of 0.1 mL of the inflammatory agent on the plantar surface of the right hind limb.
The volume of the right hind limb was measured plethysometrically prior to injection with the inflammatory agent, which represented the “0” moment of the measurements. The volume of the extremity was measured repeatedly, at 30, 60, 120 and 180 min.
In order to perform the readings, the inflamed extremity was visually marked at the level of the lateral ankle, then it was introduced into the immersion liquid of the measuring cell of the device to this level, with the performance of three measurements for each animal and for each moment, established according to the working protocol, with data storage facilitated by the plethysmometer software. The samples were administered orally by intragastric gavage, as such, at a volume of 1 mL/100 g of bw. Powder samples, after suspension with Tween 80, were administered at a concentration of 250 mg/mL, at 1 mL/100 g of bw.
The reference product (acetylsalicylic acid/aspirin) (Zentiva, Bucharest, Romania) was administered in the same way, in the form of a suspension in two doses of 100 mg/kg of bw at a volume of 1 mL/100 g of bw.

paw edema = conditions: cited from earlier work
NO = conditions: cited from earlier work

Structure (SMILES): CC(=O)Oc1ccccc1C(=O)O [ASP 100, acetylsalicylic acid]
- Average Paw Size ± SD ([1]; 0 min (prior to injection)): 1.744 ± 0.297 mL
- anti-inflammatory effect over the observation period ([1]; 30–180 min): anti-inflammatory effect that was induced early
- Average Paw Size ± SD ([1]; 30 min): 2.489 ± 0.241 mL
- Average Rise in Paw Volume ± SD ([1]; 30 min): 0.745 ± 0.056 mL
- Average Paw Size ± SD ([1]; 60 min): 2.318 ± 0.161 mL
- Average Rise in Paw Volume ± SD ([1]; 60 min): 0.574 ± 0.136 mL
- % inhibition of paw volume ([1]; 60 min): 58.20%
- Average Paw Size ± SD ([1]; 120 min): 2.216 ± 0.197 mL
- Average Rise in Paw Volume ± SD ([1]; 120 min): 0.472 ± 0.1 mL
- % inhibition of paw volume ([1]; 120 min): 64.25%
- Average Paw Size ± SD ([1]; 180 min): 2.211 ± 0.263 mL
- Average Rise in Paw Volume ± SD ([1]; 180 min): 0.467 ± 0.034 mL
- inhibitory action on paw edema (paw edema; third hour, 200 mg/kg, p < 0.05): 31.87%

Structure (SMILES): CC(C)c1cc2c(c(O)c1O)[C@@]1(C(=O)O)CCCC(C)(C)[C@@H]1CC2 [Carnosic acid]
- concentration that inhibits NO completely (NO): > 12.5 µg/mL

Structure (SMILES): CC(C)c1cc2c(c(O)c1O)[C@@]13CCCC(C)(C)[C@@H]1C[C@@H]2OC3=O [carnosol]
- IC50 (NO; read-out: IC50 NO inhibition): 9.4 µM

Structure (SMILES): O=C(/C=C/c1ccc(O)c(O)c1)O[C@H](Cc1ccc(O)c(O)c1)C(=O)O [rosmarinic acid]
- reduction of paw edema (paw edema; dose of 25 mg/kg, after 6 hrs): over 60%
